In patent US20030143189A1, “Therapy for topical diseases” (priority 2001, published 2003):

Test system: plantar warts
Assay: Treatment of plantar warts on a patient's feet with in situ polymeric film versus freezing
Type: in vivo, human
Description: A patient presents to a dermatologist with two similar plantar warts on the soles of their left and right feet. The wart on the right foot is treated by freezing with liquid nitrogen.

N#N [liquid nitrogen]
pain caused by the treatment (freeze burn) (plantar wart on sole of foot): makes walking on the foot painful for several days
time until the wart resolves (plantar wart on sole of foot, film re-applied every 3-4 days): 3 weeks
return of the wart after resolution (plantar wart, film treatment continued two weeks after resolution): has returned after two months
